Assay results from PMC6718324 (European journal of medicinal chemistry, 2019).
One block for each molecule: values may come before it.

Assays:
hCAR [1] = target: T1, hCAR (Homo sapiens, UniProt Q14994); assay: hCAR agonist luciferase reporter gene assay; format: cell-based; details: for hCAR agonist activity (in words): hCAR luciferase reporter; for fold decrease in potency (EC50) compared to compound 2: hCAR EC50 vs parent compound 2
T1 sequence (Q14994 1-348 isoform Q14994-2): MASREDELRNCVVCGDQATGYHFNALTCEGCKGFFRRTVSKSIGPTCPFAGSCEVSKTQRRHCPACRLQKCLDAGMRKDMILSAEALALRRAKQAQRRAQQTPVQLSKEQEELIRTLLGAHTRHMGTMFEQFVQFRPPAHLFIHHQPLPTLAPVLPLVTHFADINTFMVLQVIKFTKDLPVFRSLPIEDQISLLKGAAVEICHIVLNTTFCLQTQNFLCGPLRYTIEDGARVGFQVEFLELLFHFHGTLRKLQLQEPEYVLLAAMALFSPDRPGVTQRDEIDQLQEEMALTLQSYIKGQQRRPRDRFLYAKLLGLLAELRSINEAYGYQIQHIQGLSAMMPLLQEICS
T1 sequence (P19793 1-462 partner): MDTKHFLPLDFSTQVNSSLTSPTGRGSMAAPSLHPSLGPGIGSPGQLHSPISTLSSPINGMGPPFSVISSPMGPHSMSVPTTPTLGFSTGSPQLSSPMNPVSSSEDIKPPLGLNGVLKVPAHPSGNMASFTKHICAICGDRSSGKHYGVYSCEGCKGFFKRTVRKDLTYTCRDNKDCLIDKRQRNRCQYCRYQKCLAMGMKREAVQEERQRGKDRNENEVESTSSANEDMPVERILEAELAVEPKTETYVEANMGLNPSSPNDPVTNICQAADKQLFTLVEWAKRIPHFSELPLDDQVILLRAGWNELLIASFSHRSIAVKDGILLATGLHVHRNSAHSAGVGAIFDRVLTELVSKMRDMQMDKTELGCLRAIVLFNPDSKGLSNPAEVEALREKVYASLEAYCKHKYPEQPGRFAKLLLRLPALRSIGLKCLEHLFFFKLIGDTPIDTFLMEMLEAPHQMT

hPXR = target: T2, hPXR (Homo sapiens, UniProt O75469); assay: HepG2 cell reporter assay, hPXR activation; format: cell-based; details: 1 μM; for selectivity for hCAR over hPXR (in words): HepG2 cell reporter assays; for hPXR activation in HepG2 cell reporter assay (in words): normalized against rifampicin
T2 sequence (O75469 1-434): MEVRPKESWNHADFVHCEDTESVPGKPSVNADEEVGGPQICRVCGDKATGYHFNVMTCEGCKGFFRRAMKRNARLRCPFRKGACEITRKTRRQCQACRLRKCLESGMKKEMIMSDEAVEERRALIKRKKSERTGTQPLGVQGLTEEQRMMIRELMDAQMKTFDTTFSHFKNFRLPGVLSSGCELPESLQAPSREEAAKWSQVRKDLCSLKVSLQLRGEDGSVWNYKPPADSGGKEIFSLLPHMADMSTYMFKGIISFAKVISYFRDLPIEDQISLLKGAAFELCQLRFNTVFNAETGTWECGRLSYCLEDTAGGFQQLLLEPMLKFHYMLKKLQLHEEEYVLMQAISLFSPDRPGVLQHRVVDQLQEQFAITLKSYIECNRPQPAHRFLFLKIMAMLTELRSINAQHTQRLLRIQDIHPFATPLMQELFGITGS

[2] = cited from earlier work
hCAR [3] = assay: hCAR nuclear translocation assay in HPH; format: cell-based, human; details: Ad-EYFP-hCAR-infected HPH, 1 μM, 8 h
hCAR [4] = assay: HepG2 cell reporter assay, hCAR activation; format: cell-based, human; details: 1 μM; normalized against CITCO
Stability = format: physicochemical
SU-DHL-4 cells = assay: CHOP-mediated cytotoxicity in HPH/SU-DHL-4 co-culture; format: cell-based, human

SMILES: Clc1ccc(-c2nc3sccn3c2CNC2Cc3ccccc3C2)cc1 [Compound 17, N-((6-(4-Chlorophenyl)imidazo[2,1-b]thiazol-5-yl)methyl)-2,3-dihydro-1H-inden-2-amine]
selectivity for hCAR over hPXR (in words) (hPXR): maintaining selectivity for hCAR against hPXR

SMILES: Clc1ccc(-c2nc3sccn3c2COCCc2ccc(Cl)c(Cl)c2)cc1 [Compound 5, 6-(4-Chlorophenyl)-5-((3,4-dichlorophenethoxy)methyl)imidazo[2,1-b]thiazole]
hPXR activation in HepG2 cell reporter assay (in words) (hPXR): significantly activated hPXR

SMILES: CCc1nc2sccn2c1CNCCc1ccc(Cl)c(Cl)c1 [Compound 19, 2-(3,4-Dichlorophenyl)-N-((6-ethylimidazo[2,1-b]thiazol-5-yl)methyl)ethan-1-amine]
hCAR agonist activity (in words) (hCAR [1]): dramatic drop in hCAR activity

SMILES: c1ccc(CCNCc2c(-c3ccc4ccccc4c3)nc3sccn23)cc1 [Compound 30, N-((6-(Naphthalen-2-yl)imidazo[2,1-b]thiazol-5-yl)methyl)-2-phenylethan-1-amine]
hPXR activation in HepG2 cell reporter assay (in words) (hPXR): significantly activated hPXR

SMILES: Clc1ccc(-c2nc3sccn3c2/C=N/OCc2ccc(Cl)c(Cl)c2)cc1 [CITCO, 6-(4-chlorophenyl)imidazo-[2,1-b]thiazole-5-carbaldehyde-O-(3,4-dichlorobenzyl)oxime, reference compound]
stability of results in hCAR luciferase gene reporter assay (in words) [2]: unstable results
hCAR translocation from cytoplasm to nucleus (in words) (hCAR [3]): efficiently translocated into the nucleus

SMILES: Clc1ccc(-c2nc3sccn3c2CNc2ccc3ccccc3c2)cc1 [Compound 18, N-((6-(4-Chlorophenyl)imidazo[2,1-b]thiazol-5-yl)methyl)naphthalen-2-amine]
hCAR agonist activity (in words) (hCAR [1]): inactive

SMILES: c1ccc2c(c1)CC(NCc1c(-c3ccc4ccccc4c3)nc3occn13)C2 [DL5016, N-((6-(Naphthalen-2-yl)imidazo[2,1-b]oxazol-5-yl)methyl)-2,3-dihydro-1H-inden-2-amine]
hCAR activation in HepG2 cell reporter assay (in words) (hCAR [4]): significant improvement in hCAR activation over CITCO
stability (in words) (Stability): excellent stability
selectivity for hCAR over hPXR (in words) (hPXR): maintaining selectivity over hPXR
effect on CHOP-induced cytotoxicity in SU-DHL-4 cells (in words) (SU-DHL-4 cells; DL5016 1 μM with CHOP, 24 h): significantly enhanced CHOP-induced cytotoxicity
cytotoxicity of compound alone in co-cultured SU-DHL-4 cells (in words) (SU-DHL-4 cells; control experiment without CHOP): did not show cytotoxicity
hCAR translocation from cytoplasm to nucleus (in words) (hCAR [3]): efficiently translocated into the nucleus

SMILES: c1ccc2c(c1)CC(NCc1c(-c3ccc4ccccc4c3)nc3sccn13)C2 [Compound 31, N-((6-(Naphthalen-2-yl)imidazo[2,1-b]thiazol-5-yl)methyl)-2,3-dihydro-1H-inden-2-amine]
hCAR activation in HepG2 cell reporter assay (in words) (hCAR [4]): enhanced hCAR activation over CITCO
hPXR activation in HepG2 cell reporter assay (in words) (hPXR): slightly increased

SMILES: Clc1ccc(CCNCc2c(-c3ccccc3)nc3sccn23)cc1Cl [Compound 24, 2-(3,4-Dichlorophenyl)-N-((6-phenylimidazo[2,1-b]thiazol-5-yl)methyl)ethan-1-amine]
hCAR activation in HepG2 cell reporter assay (in words) (hCAR [4]): slightly decreased activation potency

SMILES: Clc1ccc(-c2nc3occn3c2CNCCc2ccc(Cl)c(Cl)c2)cc1 [Compound 7, N-((6-(4-Chlorophenyl)imidazo[2,1-b]oxazol-5-yl)methyl)-2-(3,4-dichlorophenyl)ethan-1-amine]
hCAR activation in HepG2 cell reporter assay (in words) (hCAR [4]): slight decrease in hCAR activation potency
selectivity for hCAR over hPXR (in words) (hPXR): good specificity for hCAR
fold decrease in potency (EC50) compared to compound 2 (hCAR [1]): 3.2 fold

SMILES: Clc1ccc(-c2nc3ncccn3c2CNCCc2ccc(Cl)c(Cl)c2)cc1 [Compound 8, N-((2-(4-Chlorophenyl)imidazo[1,2-a]pyrimidin-3-yl)methyl)-2-(3,4-dichlorophenyl)ethan-1-amine]
hCAR activation in HepG2 cell reporter assay (in words) (hCAR [4]): less potent compared to CITCO
fold decrease in potency (EC50) compared to compound 2 (hCAR [1]): 2 fold

SMILES: Fc1ccc(-c2nc3sccn3c2CNCCc2ccc(Cl)c(Cl)c2)cc1 [Compound 23, 2-(3,4-Dichlorophenyl)-N-((6-(4-fluorophenyl)imidazo[2,1-b]thiazol-5-yl)methyl)ethan-1-amine]
hCAR activation in HepG2 cell reporter assay (in words) (hCAR [4]): slightly decreased activation potency

Second part, led by results:

hCAR agonist activity (in words) (hCAR [1]): much weaker agonist
SMILES: FC(F)(F)c1ccc(-c2nc3sccn3c2CNCCc2ccc(Cl)c(Cl)c2)cc1 [Compound 22, 2-(3,4-Dichlorophenyl)-N-((6-(4-(trifluoromethyl)phenyl)imidazo[2,1-b]thiazol-5-yl)methyl)ethan-1-amine]

fold decrease in potency (EC50) compared to compound 2 (hCAR [1]): 1.6 fold
SMILES: Clc1ccc(CCNCc2c(-c3ccc(Cl)cc3)nc3sccn23)cc1 [Compound 9, 2-(4-Chlorophenyl)-N-((6-(4-chlorophenyl)imidazo[2,1-b]thiazol-5-yl)methyl)ethan-1-amine]
selectivity for hCAR over hPXR (in words) (hPXR): maintaining selectivity for hCAR against hPXR

hCAR agonist activity (in words) (hCAR [1]): significantly less active
SMILES: N#Cc1ccc(-c2nc3sccn3c2CNCCc2ccc(Cl)c(Cl)c2)cc1 [Compound 27, 4-(5-(((3,4-Dichlorophenethyl)amino)methyl)imidazo[2,1-b]thiazol-6-yl)benzonitrile]

fold decrease in potency (EC50) compared to compound 2 (hCAR [1]): 2.3 fold
SMILES: Clc1cccc(-c2nc3sccn3c2CNCCc2ccc(Cl)c(Cl)c2)c1 [Compound 20, N-((6-(3-Chlorophenyl)imidazo[2,1-b]thiazol-5-yl)methyl)-2-(3,4-dichlorophenyl)ethan-1-amine]

selectivity for hCAR over hPXR (in words) (hPXR): retained selectivity for hCAR over hPXR
fold decrease in potency (EC50) compared to compound 2 (hCAR [1]): 3 fold
SMILES: Clc1ccc(CCNCc2c(-c3ccc4ccccc4c3)nc3sccn23)cc1Cl [Compound 29, 2-(3,4-Dichlorophenyl)-N-((6-(naphthalen-2-yl)imidazo[2,1-b]thiazol-5-yl)methyl)ethan-1-amine]
hCAR activation in HepG2 cell reporter assay (in words) (hCAR [4]): slight increase in activation of hCAR

hCAR agonist activity (in words) (hCAR [1]): significantly less active
SMILES: CC(C)(C)c1ccc(-c2nc3sccn3c2CNCCc2ccc(Cl)c(Cl)c2)cc1 [Compound 28, N-((6-(4-(tert-Butyl)phenyl)imidazo[2,1-b]thiazol-5-yl)methyl)-2-(3,4-dichlorophenyl)ethan-1-amine]

fold decrease in potency (EC50) compared to compound 2 (hCAR [1]): 7 fold
SMILES: Clc1ccc(-c2nc3sccn3c2CNCCc2cccc(Cl)c2)cc1 [Compound 10, 2-(3-Chlorophenyl)-N-((6-(4-chlorophenyl)imidazo[2,1-b]thiazol-5-yl)methyl)ethan-1-amine]

fold decrease in potency (EC50) compared to compound 2 (hCAR [1]): 5.5 fold
SMILES: Cc1cn2c(CNCCc3ccc(Cl)c(Cl)c3)c(-c3ccc(Cl)cc3)nc2s1 [Compound 6, N-((6-(4-Chlorophenyl)-2-methylimidazo[2,1-b]thiazol-5-yl)methyl)-2-(3,4-dichlorophenyl)ethan-1-amine]

fold decrease in potency compared to compound 14 (hCAR [1]; hCAR EC50, analog one CH2 shorter than 14): over 11 fold
SMILES: Clc1ccc(-c2nc3sccn3c2CNCc2ccccc2)cc1 [Compound 15, N-Benzyl-1-(6-(4-chlorophenyl)imidazo[2,1-b]thiazol-5-yl)methanamine]

fold increase in potency compared to CITCO (hCAR [1]; hCAR EC50 vs CITCO): 1.4 fold
SMILES: Clc1ccc(-c2nc3sccn3c2CNCCc2ccc(Cl)c(Cl)c2)cc1 [Compound 2, N-((6-(4-Chlorophenyl)imidazo[2,1-b]thiazol-5-yl)methyl)-2-(3,4-dichlorophenyl)ethan-1-amine]

hCAR agonist activity (in words) (hCAR [1]): potent hCAR agonist
SMILES: Clc1ccc(-c2nc3sccn3c2CNCCc2ccccc2)cc1 [Compound 14, N-((6-(4-Chlorophenyl)imidazo[2,1-b]thiazol-5-yl)methyl)-2-phenylethan-1-amine]
selectivity for hCAR over hPXR (in words) (hPXR): maintaining selectivity for hCAR against hPXR
